We go through eight compounds from ChEMBL document CHEMBL1144219, “Synthesis of new 4-[2-(4-methyl(amino)sulfonylphenyl)-5-trifluoromethyl-2H-pyrazol-3-yl]-1,2,3,6-tetrahydropyridines: a search for novel nitric oxide donor anti-inflammatory agents” (2008).

The ED50 is the midpoint of the dose-response relation. Broadly, the inhibition in vivo is the change of the read-out against control, counted positive when it falls. Lower therefore signals a response near the control.

The source made the active and inactive calls. The calls are words filed in the database; no cut-off is given here.

Experiment [1] deals with Rattus norvegicus. The experiment is described as follows: Antiinflammatory activity against po dosed carrageenan-induced rat foot paw edema model. Type of experiment: functional. On the technique in general: Carrageenan injected into the paw causes an acute inflammation.
The test system of experiment [2] is Rattus norvegicus. The experiment is described as follows: Antiinflammatory activity against carrageenan-induced rat foot paw edema model at 100 mg/kg, po. The format is functional.

On to `CS(=O)(=O)c1ccc(-n2nc(C(F)(F)F)cc2C2=CCN(N=O)CC2)cc1`, for which it took a dose of 115 mg/kg to reach the 50% effect level in the experiment with Rattus norvegicus [1] (ED50).

In the experiment on Rattus norvegicus [2], `NS(=O)(=O)c1ccc(-n2nc(C(F)(F)F)cc2C2=CCNCC2)cc1` registered an inhibition in vivo at 100 mg/kg of 7.1%.

For `CN1CC=C(c2cc(C(F)(F)F)nn2-c2ccc(S(N)(=O)=O)cc2)CC1`, in the experiment on Rattus norvegicus [1], the 50% effect level (ED50) was put at a dose of 61.2 mg/kg.

In the case of `CN1CC=C(c2cc(C(F)(F)F)nn2-c2ccc(S(C)(=O)=O)cc2)CC1`, in the experiment on Rattus norvegicus [1], the 50% effect level (ED50) was put at a dose of 95.3 mg/kg.

`CC(=O)Oc1ccccc1C(=O)O` [ASPIRIN] registered an ED50 in the experiment with Rattus norvegicus [1] of 129 mg/kg. This ED50 and that of the compound before are within 1.5-fold of each other.

For `CCOC(=O)N1CC=C(c2cc(C(F)(F)F)nn2-c2ccc(S(C)(=O)=O)cc2)CC1`, the inhibition in vivo at 100 mg/kg in the experiment with Rattus norvegicus [2] is 24.1%.

For `CCOC(=O)N1CC=C(c2cc(C(F)(F)F)nn2-c2ccc(S(N)(=O)=O)cc2)CC1`, the result in the experiment on Rattus norvegicus [2] was inactive.

`CS(=O)(=O)c1ccc(-n2nc(C(F)(F)F)cc2C2=CCNCC2)cc1`: in the experiment on Rattus norvegicus [1], it took a dose of 129 mg/kg to reach the 50% effect level (ED50).
